{"source": "PubChem BioAssay AID1259411", "about": "(Chemical Carcinogenesis Research Information System (CCRIS), 2018)", "test_system": "rodent carcinogenicity bioassays, tumor incidence", "assay": "CCRIS carcinogenicity studies", "summary_of_the_method": "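NCI-built, expert-reviewed records of carcinogenicity and related test outcomes (mutagenicity, tumor promotion/inhibition) compiled from published and report sources, historical span 1985-2011, not updated.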", "note": "Calls of active or inactive are those of the source. The rule behind the calls is not given here.", "data": [{"smiles": "CCN(CC)C(=S)SSC(=S)N(CC)CC", "values": [{"measurement": "carcinogen call", "setting": "Species: MOUSE, Strain/Sex: B6C3F1/FEMALE, Route: ORAL, Dose: 0, 100, 500 PPM IN DIET, Dose: 0, 100, 500 PPM IN DIET", "result": "inactive; negative"}, {"measurement": "carcinogen call", "setting": "Species: MOUSE, Strain/Sex: B6C3F1/MALE, Route: ORAL, Dose: 0, 500, 2000 PPM IN DIET, Dose: 0, 500, 2000 PPM IN DIET", "result": "inactive; negative"}, {"measurement": "carcinogen call", "setting": "Species: RAT, Strain/Sex: F344/FEMALE, Route: ORAL, Dose: 0, 300, 600 PPM IN DIET, Dose: 0, 300, 600 PPM IN DIET", "result": "inactive; negative"}, {"measurement": "carcinogen call", "setting": "Species: RAT, Strain/Sex: F344/MALE, Route: ORAL, Dose: 0, 300, 600 PPM IN DIET, Dose: 0, 300, 600 PPM IN DIET", "result": "inactive; negative"}]}, {"smiles": "C[C@]12CC[C@@H]3c4cc(O)c(O)cc4CC[C@H]3[C@@H]1CC[C@@H]2O", "values": [{"measurement": "carcinogen call", "setting": "Species: MOUSE, Strain/Sex: CD-1/FEMALE, Route: SUBCUTANEOUS, Dose: 0, 2 UG/D IN CORN OIL ON DAYS 1-5 OF LIFE (STUDY DURATION: 12-18 WK), Tumor Site: Type of Lesion: UTERUS: ADENOCARCINOMA", "result": "active; positive"}]}, {"smiles": "CN(CCC#N)N=O", "values": [{"measurement": "carcinogen call", "setting": "Species: RAT, Strain/Sex: F344/FEMALE, Route: SUBCUTANEOUS, Dose: 0, 0.019 MMOL 3/WK FOR 20 WK (STUDY DURATION: 24 WK), Tumor Site: Type of Lesion: ESOPHAGUS: PAPILLOMA, NASAL CAVITY: PAPILLOMA, TONGUE: PAPILLOMA OR CARCINOMA, Tumor Site: Type of Lesion: ESOPHAGUS: PAPILLOMA, NASAL CAVITY: PAPILLOMA, TONGUE: PAPILLOMA OR CARCINOMA", "result": "active; positive"}, {"measurement": "carcinogen call", "setting": "Species: RAT, Strain/Sex: F344/MALE, FEMALE, Route: SUBCUTANEOUS, Dose: 0, 2.13 MG IN 0.3 ML SALINE 3/WK FOR 20 WK (TOTAL DOSE 127.8 MG) (STUDY DURATION: 24 WK), Tumor Site: Type of Lesion: ESOPHAGUS: SQUAMOUS CELL PAPILLOMA, SQUAMOUS CELL CARCINOMA, TONGUE: PAPILLOMA, CARCINOMA, NASAL CAVITY: PAPILLOMA, ESTH, Tumor Site: Type of Lesion: ESOPHAGUS: SQUAMOUS CELL PAPILLOMA, SQUAMOUS CELL CARCINOMA, TONGUE: PAPILLOMA, CARCINOMA, NASAL CAVITY: PAPILLOMA, ESTH", "result": "active; positive"}, {"measurement": "carcinogen call", "setting": "Species: RAT, Strain/Sex: F344/MALE,FEMALE, Route: SUBCUTANEOUS, Dose: 2.13 MG 3/WK FOR 20 WK (TOTAL DOSE 129 MG), Tumor Site: Type of Lesion: ESOPHAGUS: PAPILLOMA, CARCINOMA, NASAL CAVITY: PAPILLOMA, TONGUE: PAPILLOMA, CARCINOMA, Tumor Site: Type of Lesion: ESOPHAGUS: PAPILLOMA, CARCINOMA, NASAL CAVITY: PAPILLOMA, TONGUE: PAPILLOMA, CARCINOMA", "result": "active; positive"}, {"measurement": "carcinogen call", "setting": "Species: RAT, Strain/Sex: F344/MALE, Route: MUCOUS MEMBRANE, Dose: 0, 0.3 ML OF A 15 MMOL WATER SOLUTION 1/D 3 D/WK FOR 1 WK THEN 1/D 5 D/WK FOR WK 2-4 THEN 2/D 5 D/WK FOR WK 5-6 (STUDY D, Tumor Site: Type of Lesion: NASAL CAVITY: CARCINOMA, PAPILLOMA, ADENOMA, LUNG: ADENOCARCINOMA, ADENOMA, LIVER: CARCINOMA, ADENOMA, ESOPHAGUS: PAPILL, Tumor Site: Type of Lesion: NASAL CAVITY: CARCINOMA, PAPILLOMA, ADENOMA, LUNG: ADENOCARCINOMA, ADENOMA, LIVER: CARCINOMA, ADENOMA, ESOPHAGUS: PAPILL", "result": "active; positive"}, {"measurement": "carcinogen call", "setting": "Species: RAT, Strain/Sex: F344/MALE, Route: SUBCUTANEOUS, Dose: 0, 0.019 MMOL 3/WK FOR 20 WK (STUDY DURATION: 24 WK), Tumor Site: Type of Lesion: ESOPHAGUS: PAPILLOMA, NASAL CAVITY: PAPILLOMA, TONGUE: PAPILLOMA OR CARCINOMA, Tumor Site: Type of Lesion: ESOPHAGUS: PAPILLOMA, NASAL CAVITY: PAPILLOMA, TONGUE: PAPILLOMA OR CARCINOMA", "result": "active; positive"}]}, {"smiles": "CO[Si](CCCOCC1CO1)(OC)OC", "note": "(stereo not drawn)", "values": [{"measurement": "carcinogen call", "setting": "Species: MOUSE, Strain/Sex: C3H/MALE, Route: DERMAL, Dose: 0, 5 MG IN ACETONE 3/WK FOR DURATION OF STUDY (STUDY DURATION: LIFETIME)", "result": "inactive; negative"}]}, {"smiles": "O=[As](O)(O)O", "values": [{"measurement": "carcinogen call", "setting": "Species: MOUSE, Strain/Sex: SWISS/FEMALE, Route: INTRAVENOUS, Dose: 0, 0.5 MG/KG/WK FOR 20 WK (STUDY DURATION: 96 WK)", "result": "inactive; negative"}, {"measurement": "carcinogen call", "setting": "Species: MOUSE, Strain/Sex: SWISS/MALE, Route: INTRAVENOUS, Dose: 0, 0.5 MG/KG/WK FOR 20 WK (STUDY DURATION: 96 WK)", "result": "inactive; negative"}]}, {"smiles": "O=[N+]([O-])c1ccccc1", "values": [{"measurement": "carcinogen call", "setting": "Species: MOUSE, Strain/Sex: B6C3F1/FEMALE, Route: INHALATION, Dose: 0, 5, 25, 50 PPM 6 HR/D 5 D/WK FOR 2 YR (STUDY DURATION: 2 YR), Dose: 0, 5, 25, 50 PPM 6 HR/D 5 D/WK FOR 2 YR (STUDY DURATION: 2 YR), Tumor Site: Type of Lesion: MAMMARY GLAND: ADENOCARCINOMA", "result": "active; positive"}, {"measurement": "carcinogen call", "setting": "Species: MOUSE, Strain/Sex: B6C3F1/MALE, Route: INHALATION, Dose: 0, 5, 25, 50 PPM 6 HR/D 5 D/WK FOR 2 YR (STUDY DURATION: 2 YR), Dose: 0, 5, 25, 50 PPM 6 HR/D 5 D/WK FOR 2 YR (STUDY DURATION: 2 YR), Tumor Site: Type of Lesion: LUNG: ADENOMA, ADENOMA OR CARCINOMA, THYROID GLAND: FOLLICULAR CELL ADENOMA", "result": "active; positive"}, {"measurement": "carcinogen call", "setting": "Species: RAT, Strain/Sex: F344/FEMALE, Route: INHALATION, Dose: 0, 1, 5, 25 PPM 6 HR/D 5 D/WK FOR 2 YR (STUDY DURATION: 2 YR), Dose: 0, 1, 5, 25 PPM 6 HR/D 5 D/WK FOR 2 YR (STUDY DURATION: 2 YR), Tumor Site: Type of Lesion: UTERUS: ENDOMETRIAL STROMAL POLYP", "result": "active; positive"}, {"measurement": "carcinogen call", "setting": "Species: RAT, Strain/Sex: F344/MALE, Route: INHALATION, Dose: 0, 1, 5, 25 PPM 6 HR/D 5 D/WK FOR 2 YR (STUDY DURATION: 2 YR), Dose: 0, 1, 5, 25 PPM 6 HR/D 5 D/WK FOR 2 YR (STUDY DURATION: 2 YR), Tumor Site: Type of Lesion: LIVER: HEPATOCELLULAR ADENOMA, HEPATOCELLULAR ADENOMA OR CARCINOMA, KIDNEY: TUBULAR ADENOMA, TUBULAR ADENOMA OR CARCINOM", "result": "active; positive"}, {"measurement": "carcinogen call", "setting": "Species: RAT, Strain/Sex: STRAIN-CD/MALE, Route: INHALATION, Dose: 0, 1, 5, 25 PPM 6 HR/D 5 D/WK FOR 2 YR (STUDY DURATION: 2 YR), Dose: 0, 1, 5, 25 PPM 6 HR/D 5 D/WK FOR 2 YR (STUDY DURATION: 2 YR), Tumor Site: Type of Lesion: LIVER: HEPATOCELLULAR ADENOMA, HEPATOCELLULAR ADENOMA OR CARCINOMA", "result": "active; positive"}]}, {"smiles": "Cc1c(N(C)C)c(=O)n(-c2ccccc2)n1C", "values": [{"measurement": "carcinogen call", "setting": "Species: MOUSE, Strain/Sex: B6C3F1/FEMALE, Route: ORAL, Dose: 0, 0.04, 0.08% IN DRINKING WATER FOR 100 WK (STUDY DURATION: 104 WK), Dose: 0, 0.04, 0.08% IN DRINKING WATER FOR 100 WK (STUDY DURATION: 104 WK)", "result": "inactive; negative"}, {"measurement": "carcinogen call", "setting": "Species: MOUSE, Strain/Sex: B6C3F1/MALE, Route: ORAL, Dose: 0, 0.04, 0.08% IN DRINKING WATER FOR 100 WK (STUDY DURATION: 104 WK), Dose: 0, 0.04, 0.08% IN DRINKING WATER FOR 100 WK (STUDY DURATION: 104 WK)", "result": "inactive; negative"}]}, {"smiles": "COCCOC1=C(N2CC2)C(=O)C(OCCOC)=C(N2CC2)C1=O", "values": [{"measurement": "carcinogen call", "setting": "Species: MOUSE, Route: INTRAPERITONEAL, Tumor Site: Type of Lesion: LUNG", "result": "active; positive"}]}, {"smiles": "c1ccc2c(c1)-c1ccc3ccc4cccc5cc-2c1c3c45", "values": [{"measurement": "carcinogen call", "setting": "Species: MOUSE, Strain/Sex: ICR/FEMALE, Route: DERMAL, Tumor Site: Type of Lesion: INTEGUMENTARY SYSTEM (SKIN): PAPILLOMA, CARCINOMA", "result": "active; positive"}, {"measurement": "carcinogen call", "setting": "Species: MOUSE, Strain/Sex: XVII-NC/Z/MALE, Route: SUBCUTANEOUS, Tumor Site: Type of Lesion: INJECTION SITE: SARCOMA", "result": "active; positive"}, {"measurement": "carcinogen call", "setting": "Species: RAT, Strain/Sex: OSBORNE-MENDEL/FEMALE, Route: LUNG IMPLANT, Dose: 0, 0.16, 0.83, 4.15 MG IN BEESWAX/TRIOCTANOIN (STUDY DURATION: LIFETIME), Dose: 0, 0.16, 0.83, 4.15 MG IN BEESWAX/TRIOCTANOIN (STUDY DURATION: LIFETIME), Tumor Site: Type of Lesion: LUNG: EPIDERMOID CARCINOMA", "result": "active; positive"}]}, {"smiles": "Nc1ccc(Cl)c(N)c1", "values": [{"measurement": "carcinogen call", "setting": "Species: MOUSE, Strain/Sex: B6C3F1/FEMALE, Route: ORAL, Dose: 0, 0.7, 1.4% OF DIET, TWA, Dose: 0, 0.7, 1.4% OF DIET, TWA, Tumor Site: Type of Lesion: LIVER: HEPATOCELLULAR ADENOMA OR HEPATOCELLULAR CARCINOMA", "result": "active; positive"}, {"measurement": "carcinogen call", "setting": "Species: MOUSE, Strain/Sex: B6C3F1/MALE, Route: ORAL, Dose: 0, 0.7, 1.4% OF DIET, TWA, Dose: 0, 0.7, 1.4% OF DIET, TWA", "result": "inactive; negative"}, {"measurement": "carcinogen call", "setting": "Species: RAT, Strain/Sex: F344/FEMALE, Route: ORAL, Dose: 0, 0.2, 0.4% OF DIET, Dose: 0, 0.2, 0.4% OF DIET", "result": "inactive; negative"}, {"measurement": "carcinogen call", "setting": "Species: RAT, Strain/Sex: F344/MALE, Route: ORAL, Dose: 0, 0.2, 0.4% OF DIET, Dose: 0, 0.2, 0.4% OF DIET, Tumor Site: Type of Lesion: ADRENAL GLAND: PHEOCHROMOCYTOMA", "result": "active; positive"}]}]}
